Values after ≈ are worked out from the molar mass of the structure shown. Like-named read-outs stand apart in the source and are kept apart here.

One experiment relates to S. aureus RN4220 (pE194). Put plainly: Overexpression assay, MIC for vector-containing S. aureus RN4220 (pE194). In kind it is cell-based. Conditions: Staphylococcus aureus, read-out: MIC S. aureus (pE194). Here is the method: (§1) Whole-cell antimicrobial activity was determined by broth microdilution as described previously. The test strains except for S. pneumoniae were grown to mid-log phase in Mueller–Hinton broth and diluted 1,000-fold in the same medium. Cells (10^5/mL) were inoculated into Mueller–Hinton broth and dispensed at 0.2 mL/well into a 96-well microtiter plate. S. pneumoniae was grown in tryptic soy broth supplemented with 5% sheep blood. MICs were determined in triplicate by serial 2-fold dilutions of test compounds. […] Bacterial growth was determined by measuring the absorption at 650 nm by using a microtiter ELISA reader.
(§2) An overexpression assay using S. aureus RN4220, S. aureus RN4220 (pE194), and S. aureus RN4220 (pE194-fabI) was conducted to perform target validation of FabI inhibitors as described previously. Additionally, both fabI- and fabK-overexpressing E. coli were constructed to test a multitarget effect of the compounds. The wild-type fabI gene from the genomic DNA of E. coli W3110 was amplified by PCR by using the primers 5′-[…]-3′ and 5′-[…]-3′. The wild-type fabK gene from the genomic DNA of S. pneumoniae KCTC 5412 was amplified by PCR by using the primers 5′-[…]-3′ and 5′-[…] […]-3′. The resulting products were cloned into the pBAD-TOPO TA expression vector (Invitrogen, Carlsbad, CA, USA) to yield the pBAD-fabI and pBAD-fabK recombinant plasmids, which placed the expression of the genes fabI and fabK, respectively, under the control of the arabinose promoter. Recombinant pBAD-fabI and pBAD-fabK were then introduced into the pump-negative (tolC) E. coli EW1b via electroporation to generate E. coli EW1b (pBAD-fabI) and E. coli EW1b (pBAD-fabK), respectively.

The next experiment relates to S. aureus RN4220. Put plainly: MIC by broth microdilution, S. aureus RN4220 (wild type). The settings on record: for MIC: Staphylococcus aureus, S. aureus RN4220 (wild type); for Antibacterial activity relative to compound 1: against S. aureus RN4220 and E. coli KCTC 1924. In kind it is cell-based, Staphylococcus aureus. As to the method:
as §1
In general terms: In broth dilution the organism is exposed to a series of concentrations in liquid medium.

The subject of experiment [1] is incorporation of leucine into proteins in S. aureus. Put plainly: [14C] leucine incorporation into proteins in S. aureus. In kind it is cell-based. Conditions: Staphylococcus aureus. Here is the method:
To monitor the effects of compound 1 on lipid, DNA, RNA, protein, and cell wall biosynthesis, its effects on the incorporation of [1-^14C] acetate (50 mCi/mmol), [2-^14C] thymidine (59.8 mCi/mmol), [U-^14C] uridine (539 mCi/mmol), L-[U-^14C] leucine (306 mCi/mmol) or L-[U-^14C] isoleucine (329 mCi/mmol), and N-acetyl-D-[1-^14C] glucosamine (58.1 mCi/mmol) into S. aureus and S. pneumoniae were measured as described previously. S. aureus was exponentially grown to an A650 of 0.2 in Mueller–Hinton broth. S. pneumoniae was grown in tryptic soy broth supplemented with 5% sheep blood. […] An equal volume of DMSO solvent was added to the untreated control. After incubation with the radiolabeled precursors at 37°C for 1 h, followed by centrifugation, the cell pellets were washed twice with PBS buffer. After acetate incorporation, the total cellular lipids were extracted with chloroform-methanol-water. The incorporated radioactivity in the chloroform phase was measured by scintillation counting. For the other precursors, incorporation was terminated by adding 10% (w/v) TCA and cooling on ice for 20 min. The precipitated material was collected on Whatman GF/C glass microfiber filters, washed with TCA and ethanol, dried, and counted using a scintillation counter. The total counts incorporated at 1 h of incubation without inhibitors ranged from >7,000 for [U-^14C] uridine to <13,000 for [1-^14C] acetate. […] In all experiments, known antibacterial agents were included as positive controls.
We measured their effects on the incorporation of [1-^14C] acetate into membrane fatty acids in S. aureus. […] In contrast, the incorporation of leucine into proteins was not inhibited by the active compounds (Table 1), whereas the protein synthesis inhibitor, chloramphenicol, inhibited incorporation (data not shown).

Experiment [2] deals with S. aureus RN4220 (pE194-fabI). Put plainly: Overexpression assay, MIC for fabI-overexpressing S. aureus RN4220 (pE194-fabI). In kind it is cell-based. Conditions: Staphylococcus aureus, read-out: MIC S. aureus (pE194-fabI). As to the method:
as §1, §2

A further experiment addresses T1, S. aureus FabI (Staphylococcus aureus, UniProt Q6GI75).
T1 construct: made in house
T1 sequence (Q6GI75 1-256): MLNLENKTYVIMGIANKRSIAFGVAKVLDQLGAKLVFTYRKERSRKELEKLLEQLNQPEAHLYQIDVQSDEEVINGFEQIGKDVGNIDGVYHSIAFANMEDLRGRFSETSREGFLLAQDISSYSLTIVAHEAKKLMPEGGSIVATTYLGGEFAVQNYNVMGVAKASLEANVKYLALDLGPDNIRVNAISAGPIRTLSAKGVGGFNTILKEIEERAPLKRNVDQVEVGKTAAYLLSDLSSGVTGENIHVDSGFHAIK
Put plainly: S. aureus FabI enzyme assay (NADPH use at 340 nm, t-o-NAC thioester substrate). Format: biochemical. From the text:
S. aureus FabI and E. coli FabI enzymes were cloned, overexpressed, and purified as described previously. The wild-type fabK gene was amplified by PCR from genomic DNA obtained from Streptococcus pneumoniae KCTC 5412 by using the primers 5′-[…]-3′ and 5′-[…]-3′, which contained NdeI and XhoI restriction sites, respectively. After the DNA sequence was confirmed, the gene was cloned into the pET22b vector (Novagen, Gibbstown, NJ, USA). The construct was transformed into E. coli BL21 (DE3) for expression following induction with isopropylthiogalactoside. The C-terminal His-tagged protein was purified as described previously. Assays were conducted in half-area, 96-well microtiter plates. The compounds were dissolved in DMSO and evaluated in 100-μL assay mixtures containing components specific for each enzyme (see below). Reduction of the trans-2-octenoyl N-acetylcysteamine (t-o-NAC thioester) substrate analog was measured spectrophotometrically following the utilization of NADH or NADPH at 340 nm at 30°C for the linear period of the assay. S. aureus FabI assays contained 50 mM sodium acetate (pH 6.5), 200 μM t-o-NAC thioester, 200 μM NADPH, and 150 nM S. aureus FabI.
NADH was used as a cofactor rather than NADPH for the E. coli FabI assay. Substrate concentrations used for the Lineweaver–Burk plot were 100, 200, 300, and 400 μM, whereas the concentrations of the cofactor were 100, 200, 400, and 600 μM. The rate of decrease in the amount of NADPH in each reaction was measured with a microtiter enzyme-linked immunosorbent assay (ELISA) reader by using the SOFTmax PRO software (Molecular Devices, Sunnyvale, CA, USA). The inhibitory activity was calculated according to the following formula: % of inhibition = 100× [1− (rate in the presence of compound/rate in the untreated control)]. IC50 values were calculated by fitting the data to a sigmoid equation. An equal volume of DMSO solvent was used for the untreated control. FabK assays contained 100 mM sodium acetate (pH 6.5), 2% glycerol, 200 mM NH4Cl, 50 µM t-o-NAC thioester, 200 µM NADH, and 150 nM S. pneumoniae FabK.

Setting [3] is: with respect to trans-2-octenoyl N-acetylcysteamine.
[4] abbreviates: S. aureus FabI, read-out: IC50 saFabI.

By MIC is commonly meant the smallest concentration in the dilution series that meets the test's criterion for growth inhibition. For orientation: IC50 means the concentration that inhibits the measured activity by half. The Ki is the dissociation constant of the complex between target and ligand, obtained from inhibition or displacement. Low readings indicate tighter binding, high ones weaker binding. On to `C=CC(C)(C)C12C=C(O)C(=O)N3/C(=C/c4cnc[nH]4)C(=O)NC31N(OC)c1ccccc12` (centres unmarked) [Compound 1, meleagrin], for which the MIC is 64 µg/mL (≈ 148 µM) in the experiment with S. aureus RN4220 (pE194), 64 µg/mL (≈ 148 µM) in the experiment with S. aureus RN4220 and 256 µg/mL (≈ 591 µM) in experiment [2]. In addition, the IC50 is more than 200 µM in experiment [1] and 40.1 µM at S. aureus FabI. Also, the Ki at S. aureus FabI (with respect to NADPH) is 32.3 µM; at S. aureus FabI (setting [3]) it was 39.8 µM. Moreover, the entries for the “Mode of FabI inhibition” value on S. aureus FabI (with respect to NADPH) and at S. aureus FabI (setting [3]) were “mixed inhibition” and “mixed”, respectively.
In the case of `C=CC(C)(C)C12C=C(OC)C(=O)N3/C(=C/c4cnc[nH]4)C(=O)NC31N(OC)c1ccccc12` (centres unmarked) [Compound 3, oxaline], the results for the MIC (in the experiment with S. aureus RN4220 (pE194); against S. aureus RN4220; in experiment [2]) were 64 µg/mL (≈ 143 µM), 64 µg/mL (≈ 143 µM) and 256 µg/mL (≈ 572 µM), respectively. In addition, the IC50 in experiment [1] is more than 200 µM; against S. aureus FabI it was 38.7 µM.
As for `C=CC(C)(C)C12C=C(O)C(=O)N3/C(=C/c4cnc[nH]4)C(=O)N(C)C31N(OC)c1ccccc12` (centres unmarked) [Compound 4, N^14-methylmeleagrin], the MIC was 64 µg/mL (≈ 143 µM) in the experiment with S. aureus RN4220 (pE194), 64 µg/mL (≈ 143 µM) against S. aureus RN4220 and 256 µg/mL (≈ 572 µM) in experiment [2]. Also, the IC50 in experiment [1] is more than 200 µM; on S. aureus FabI, 48 µM.
As to `C=CC(C)(C)C12C=C(OC)C(=O)N3/C(=C/c4cnc[nH]4)C(=O)N(C)C31N(OC)c1ccccc12` (centres unmarked) [Compound 5, O,N^14-dimethylmeleagrin], the MIC in the experiment with S. aureus RN4220 (pE194) came to 16 µg/mL (≈ 34.7 µM); against S. aureus RN4220, 16 µg/mL (≈ 34.7 µM); in experiment [2] it was 128 µg/mL (≈ 277 µM). Moreover, the “Antibacterial activity relative to compound 1” value in the experiment on S. aureus RN4220 is given as 2–4 times. The IC50 was more than 200 µM in experiment [1] and 13.5 µM on S. aureus FabI (setting [4]).
Turning to `C=CC(C)(C)C12C=C(OC)C(=O)N3/C(=C/c4cnc[nH]4)C(=O)N(C)C31Nc1ccccc12` (centres unmarked) [Compound 6, O,N^14-dimethylglandicolin], the MIC in the experiment on S. aureus RN4220 (pE194) worked out at 16 µg/mL (≈ 37.1 µM); against S. aureus RN4220, 16 µg/mL (≈ 37.1 µM); in experiment [2] it was 128 µg/mL (≈ 297 µM). The “Antibacterial activity relative to compound 1” value in the experiment with S. aureus RN4220 is 2–4 times. The IC50 in experiment [1] is more than 200 µM; on S. aureus FabI it was 13.1 µM.
The compound `C=CC(C)(C)C12C=C(O)C(=O)N3/C(=C/c4cnc[nH]4)C(=O)NC31Nc1c(Br)cccc12` (centres unmarked) [Compound 7] displayed an MIC in the experiment with S. aureus RN4220 of more than 128 µg/mL. Moreover, the IC50 (in experiment [1]; on S. aureus FabI (setting [4])) was more than 200 µM each time.
For the compound `Oc1cc(Cl)ccc1Oc1ccc(Cl)cc1Cl` [Triclosan, reference compound], the MIC stood at 0.01 µg/mL (≈ 0.0345 µM) with S. aureus RN4220 (pE194), 0.01 µg/mL (≈ 0.0345 µM) in the experiment on S. aureus RN4220 and 1.6 µg/mL (≈ 5.53 µM) in experiment [2]. Besides, in experiment [1], the IC50 is more than 10 µM.

These data come from article PMC3842914, “Meleagrin, a New FabI Inhibitor from Penicillium chryosogenum with at Least One Additional Mode of Action” (PLoS ONE, 2013).
